Holding throughout (assay): cell-based
In assay [1] the target is human Kv1.3 channel (Homo sapiens, UniProt P22001). The class given is cell-based.
Assay [2] concerns the target T1, human Kv1.3 (CHO) (Homo sapiens, UniProt P22001).
T1 construct: expressed in transfected cells; host or cells: CHO

The target of assay [3] is T2, human Kv1.1 (HEK293) (Homo sapiens, UniProt Q09470).
T2 construct: expressed in transfected cells; host or cells: HEK293

Assay [4] addresses human Kv1.1 (Homo sapiens, UniProt Q09470). Also noted: expressed in transfected cells; host or cells: HEK293. The conditions noted are these: Kv1.1 (IC50, pM).

Bridge positions count the residues as written; N and C are the ends. Peptide text beside a SMILES is read from it. Bounds are passed on as bounds.

As usually defined, the IC50 is the concentration needed to halve the response being measured.

T1 sequence (P22001 whole entry): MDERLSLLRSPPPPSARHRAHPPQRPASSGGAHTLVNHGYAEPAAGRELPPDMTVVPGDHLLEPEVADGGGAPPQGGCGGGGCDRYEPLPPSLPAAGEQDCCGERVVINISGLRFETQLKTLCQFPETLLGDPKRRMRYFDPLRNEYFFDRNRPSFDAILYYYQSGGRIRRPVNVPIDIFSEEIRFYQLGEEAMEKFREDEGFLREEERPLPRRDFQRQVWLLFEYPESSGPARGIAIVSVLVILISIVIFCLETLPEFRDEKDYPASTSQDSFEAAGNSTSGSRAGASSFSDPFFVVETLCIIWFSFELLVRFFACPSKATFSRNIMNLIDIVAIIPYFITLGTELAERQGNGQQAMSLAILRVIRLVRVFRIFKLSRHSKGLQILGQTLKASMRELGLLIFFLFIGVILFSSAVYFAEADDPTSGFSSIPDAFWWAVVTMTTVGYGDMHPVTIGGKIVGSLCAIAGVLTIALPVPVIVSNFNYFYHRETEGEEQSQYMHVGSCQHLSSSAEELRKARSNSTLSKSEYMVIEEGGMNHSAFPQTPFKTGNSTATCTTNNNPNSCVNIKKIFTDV
Sequence of human Kv1.3 channel (P22001 whole entry): as above
T2 sequence (Q09470 whole entry): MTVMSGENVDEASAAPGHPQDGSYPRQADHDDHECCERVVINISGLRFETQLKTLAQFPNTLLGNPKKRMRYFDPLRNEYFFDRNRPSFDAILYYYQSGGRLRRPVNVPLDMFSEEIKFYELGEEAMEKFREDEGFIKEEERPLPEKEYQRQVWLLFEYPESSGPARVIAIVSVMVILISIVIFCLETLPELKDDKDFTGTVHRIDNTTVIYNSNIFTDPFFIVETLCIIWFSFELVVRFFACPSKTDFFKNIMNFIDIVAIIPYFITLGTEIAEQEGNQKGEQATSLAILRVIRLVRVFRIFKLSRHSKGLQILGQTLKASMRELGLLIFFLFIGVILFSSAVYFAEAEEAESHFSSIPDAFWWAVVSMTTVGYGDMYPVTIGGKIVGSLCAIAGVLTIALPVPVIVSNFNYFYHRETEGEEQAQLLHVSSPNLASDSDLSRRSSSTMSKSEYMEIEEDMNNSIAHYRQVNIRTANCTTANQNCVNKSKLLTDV
Sequence of human Kv1.1 (Q09470 whole entry): as above

On to `CC[C@H](C)[C@@H]1NC(=O)[C@H](CCCCN)NC(=O)[C@@H](NC(=O)[C@H](CCCCN)NC(=O)[C@@H](NC(=O)[C@H](CC(N)=O)NC(=O)[C@@H](NC(=O)[C@@H](NC(=O)[C@@H](NC(=O)CN)C(C)C)[C@@H](C)CC)[C@@H](C)CC)C(C)C)CSSC[C@@H]2NC(=O)[C@H](CCCCN)NC(=O)CNC(=O)[C@H](Cc3ccccc3)NC(=O)[C@H](CCCNC(=N)N)NC(=O)[C@H](CCSC)NC(=O)CNC(=O)[C@H](C)NC(=O)[C@H](CCCCN)NC(=O)[C@H](CCCCN)NC(=O)[C@@H]3CSSC[C@@H](C(=O)N[C@H](C(=O)N4CCC[C@H]4C(=O)N[C@@H](CCCCN)C(=O)O)[C@@H](C)O)NC(=O)[C@H](C)NC(=O)[C@H](CSSC[C@H](NC(=O)[C@H](CCC(N)=O)NC(=O)[C@H](CCCNC(=N)N)NC(=O)[C@H](CO)NC1=O)C(=O)N[C@@H](CC(C)C)C(=O)N[C@@H](CCC(=O)O)C(=O)N1CCC[C@H]1C(=O)N3)NC(=O)[C@H](CCCCN)NC(=O)CNC(=O)[C@H](CC(N)=O)NC(=O)[C@H](CCSC)NC2=O` [H34A] (H-GVIINVKCKISRQCLEPCKKAGMRFGKCMNGKCACTPK-OH; disulfide 8-28, 14-33, 18-35), for which the IC50 was 0.016 nM in assay [1], 0.0194 nM in assay [2], 0.368 nM in assay [3] and 12800 pM in assay [4].

`CC[C@H](C)[C@@H]1NC(=O)[C@H](CCCCN)NC(=O)[C@@H](NC(=O)[C@H](CCCCN)NC(=O)[C@@H](NC(=O)[C@H](CC(N)=O)NC(=O)[C@@H](NC(=O)[C@@H](NC(=O)[C@@H](NC(=O)CN)C(C)C)[C@@H](C)CC)[C@@H](C)CC)C(C)C)CSSC[C@@H]2NC(=O)[C@H](CCCCN)NC(=O)CNC(=O)[C@H](Cc3ccccc3)NC(=O)[C@H](CCCNC(=N)N)NC(=O)[C@H](CCSC)NC(=O)CNC(=O)[C@H](C)NC(=O)[C@H](CCCCN)NC(=O)[C@H](CCCCN)NC(=O)[C@@H]3CSSC[C@@H](C(=O)N[C@H](C(=O)N4CCC[C@H]4C(=O)N[C@@H](CCCCN)C(=O)O)[C@@H](C)O)NC(=O)[C@H](CCC(=O)O)NC(=O)[C@H](CSSC[C@H](NC(=O)[C@H](CCC(N)=O)NC(=O)[C@H](CCCNC(=N)N)NC(=O)[C@H](CO)NC1=O)C(=O)N[C@@H](CC(C)C)C(=O)N[C@@H](CCC(=O)O)C(=O)N1CCC[C@H]1C(=O)N3)NC(=O)[C@H](CCCCN)NC(=O)CNC(=O)[C@H](CC(N)=O)NC(=O)[C@H](CCSC)NC2=O` [H34E] (H-GVIINVKCKISRQCLEPCKKAGMRFGKCMNGKCECTPK-OH; disulfide 8-28, 14-33, 18-35): the IC50 in assay [1] was found to be 1.32 nM; in assay [2] it was 0.33 nM; in assay [3] it was 1.69 nM; in assay [4] it was 39400 pM.

On to `CC[C@H](C)[C@@H]1NC(=O)[C@H](CCCCN)NC(=O)[C@@H](NC(=O)[C@H](CCCCN)NC(=O)[C@@H](NC(=O)[C@H](CC(N)=O)NC(=O)[C@@H](NC(=O)[C@@H](NC(=O)[C@@H](NC(=O)CN)C(C)C)[C@@H](C)CC)[C@@H](C)CC)C(C)C)CSSC[C@@H]2NC(=O)[C@H](CCCCN)NC(=O)CNC(=O)[C@H](Cc3ccccc3)NC(=O)[C@H](CCCNC(=N)N)NC(=O)[C@H](CCSC)NC(=O)CNC(=O)[C@H](C)NC(=O)[C@H](CCCCN)NC(=O)[C@H](CCCCN)NC(=O)[C@@H]3CSSC[C@@H](C(=O)N[C@H](C(=O)N4CCC[C@H]4C(=O)N[C@@H](CCCCN)C(=O)O)[C@@H](C)O)NC(=O)[C@H](Cc4c[nH]cn4)NC(=O)[C@H](CSSC[C@H](NC(=O)[C@H](CCC(N)=O)NC(=O)[C@H](CCCNC(=N)N)NC(=O)[C@H](CO)NC1=O)C(=O)N[C@@H](CCC(=O)O)C(=O)N[C@@H](CCC(=O)O)C(=O)N1CCC[C@H]1C(=O)N3)NC(=O)[C@H](CCCCN)NC(=O)CNC(=O)[C@H](CC(N)=O)NC(=O)[C@H](CCSC)NC2=O` [L15E] (H-GVIINVKCKISRQCEEPCKKAGMRFGKCMNGKCHCTPK-OH; disulfide 8-28, 14-33, 18-35), for which the IC50 is 0.19 nM in assay [1], 0.0475 nM in assay [2], 0.436 nM in assay [3] and 65000 pM in assay [4].

On to `CC[C@H](C)[C@@H]1NC(=O)[C@H](CCCCN)NC(=O)[C@@H](NC(=O)[C@H](CCCCN)NC(=O)[C@@H](NC(=O)[C@H](CC(N)=O)NC(=O)[C@@H](NC(=O)[C@@H](NC(=O)[C@@H](NC(=O)CN)C(C)C)[C@@H](C)CC)[C@@H](C)CC)C(C)C)CSSC[C@@H]2NC(=O)[C@H](CCCCN)NC(=O)CNC(=O)[C@H](Cc3ccccc3)NC(=O)[C@H](CCCNC(=N)N)NC(=O)[C@H](CCSC)NC(=O)CNC(=O)[C@H](C)NC(=O)[C@H](CCCCN)NC(=O)[C@H](CCCCN)NC(=O)[C@@H]3CSSC[C@@H](C(=O)N[C@H](C(=O)N4CCC[C@H]4C(=O)N[C@@H](CCCCN)C(=O)O)[C@@H](C)O)NC(=O)[C@H](Cc4c[nH]cn4)NC(=O)[C@H](CSSC[C@H](NC(=O)[C@H](CCC(N)=O)NC(=O)[C@H](CCCNC(=N)N)NC(=O)[C@H](CO)NC1=O)C(=O)N[C@@H](CC(C)C)C(=O)N[C@@H](CCC(=O)O)C(=O)N1CCC[C@H]1C(=O)N3)NC(=O)[C@H](CCCCN)NC(=O)CNC(=O)[C@H](CC(N)=O)NC(=O)[C@H](C)NC2=O` [M29A] (H-GVIINVKCKISRQCLEPCKKAGMRFGKCANGKCHCTPK-OH; disulfide 8-28, 14-33, 18-35), for which the IC50 was 0.0595 nM in assay [2], > 3.33 nM in assay [3] and 3470 pM in assay [4].

In the case of `CC[C@H](C)[C@@H]1NC(=O)[C@H](CCCCN)NC(=O)[C@@H](NC(=O)[C@H](CCCCN)NC(=O)[C@@H](NC(=O)[C@H](CC(N)=O)NC(=O)[C@@H](NC(=O)[C@@H](NC(=O)[C@@H](NC(=O)CN)C(C)C)[C@@H](C)CC)[C@@H](C)CC)C(C)C)CSSC[C@@H]2NC(=O)[C@H](CCCCN)NC(=O)CNC(=O)[C@H](Cc3ccccc3)NC(=O)[C@H](CCCNC(=N)N)NC(=O)[C@H](CCSC)NC(=O)CNC(=O)[C@H](C)NC(=O)[C@H](CCCCN)NC(=O)[C@H](CCCCN)NC(=O)[C@@H]3CSSC[C@@H](C(=O)N[C@H](C(=O)N4CCC[C@H]4C(=O)N[C@@H](CCCCN)C(=O)O)[C@@H](C)O)NC(=O)[C@H](Cc4c[nH]cn4)NC(=O)[C@H](CSSC[C@H](NC(=O)[C@H](CCC(N)=O)NC(=O)[C@H](CCCNC(=N)N)NC(=O)[C@H](CO)NC1=O)C(=O)N[C@@H](CC(C)C)C(=O)N[C@@H](CCC(=O)O)C(=O)N1CCC[C@H]1C(=O)N3)NC(=O)[C@H](CCCCN)NC(=O)CNC(=O)[C@H](CC(N)=O)NC(=O)[C@H](CCCNC(=N)N)NC2=O` [M29R] (H-GVIINVKCKISRQCLEPCKKAGMRFGKCRNGKCHCTPK-OH; disulfide 8-28, 14-33, 18-35), the 50% inhibitory concentration (IC50) in assay [1] came out at 0.76 nM; in assay [2], 0.2 nM; in assay [3], 1.87 nM; in assay [4], 23000 pM.

Turning to `CC[C@H](C)[C@@H]1NC(=O)[C@H](CCCCN)NC(=O)[C@@H](NC(=O)[C@H](CCCCN)NC(=O)[C@@H](NC(=O)[C@H](CC(N)=O)NC(=O)[C@@H](NC(=O)[C@@H](NC(=O)[C@@H](NC(=O)CN)C(C)C)[C@@H](C)CC)[C@@H](C)CC)C(C)C)CSSC[C@@H]2NC(=O)[C@H](CCCCN)NC(=O)CNC(=O)[C@H](Cc3ccccc3)NC(=O)[C@H](CCCNC(=N)N)NC(=O)[C@H](CCSC)NC(=O)CNC(=O)[C@H](C)NC(=O)[C@H](CCCCN)NC(=O)[C@H](CCCCN)NC(=O)[C@@H]3CSSC[C@@H](C(=O)N[C@H](C(=O)N4CCC[C@H]4C(=O)N[C@@H](CCCCN)C(=O)O)[C@@H](C)O)NC(=O)[C@H](Cc4c[nH]cn4)NC(=O)[C@H](CSSC[C@H](NC(=O)[C@H](CCC(N)=O)NC(=O)[C@H](CCCNC(=N)N)NC(=O)[C@H](CO)NC1=O)C(=O)N[C@@H](CC(C)C)C(=O)N[C@@H](CCC(=O)O)C(=O)N1CCC[C@H]1C(=O)N3)NC(=O)[C@H](CCCCN)NC(=O)CNC(=O)[C@H](C)NC(=O)[C@H](CCSC)NC2=O` [N30A] (H-GVIINVKCKISRQCLEPCKKAGMRFGKCMAGKCHCTPK-OH; disulfide 8-28, 14-33, 18-35), the IC50 in assay [1] was 0.766 nM; in assay [2], 0.693 nM; in assay [3], > 3 nM; in assay [4] it was 10200 pM.

With `CC[C@H](C)[C@@H]1NC(=O)[C@H](CCCCN)NC(=O)[C@@H](NC(=O)[C@H](CCCCN)NC(=O)[C@H](CCC(=O)O)NC(=O)[C@H](CC(N)=O)NC(=O)[C@@H](NC(=O)[C@@H](NC(=O)[C@@H](NC(=O)CN)C(C)C)[C@@H](C)CC)[C@@H](C)CC)CSSC[C@@H]2NC(=O)[C@H](CCCCN)NC(=O)CNC(=O)[C@H](Cc3ccccc3)NC(=O)[C@H](CCCNC(=N)N)NC(=O)[C@H](CCSC)NC(=O)CNC(=O)[C@H](C)NC(=O)[C@H](CCCCN)NC(=O)[C@H](CCCCN)NC(=O)[C@@H]3CSSC[C@@H](C(=O)N[C@H](C(=O)N4CCC[C@H]4C(=O)N[C@@H](CCCCN)C(=O)O)[C@@H](C)O)NC(=O)[C@H](Cc4c[nH]cn4)NC(=O)[C@H](CSSC[C@H](NC(=O)[C@H](CCC(N)=O)NC(=O)[C@H](CCCNC(=N)N)NC(=O)[C@H](CO)NC1=O)C(=O)N[C@@H](CC(C)C)C(=O)N[C@@H](CCC(=O)O)C(=O)N1CCC[C@H]1C(=O)N3)NC(=O)[C@H](CCCCN)NC(=O)CNC(=O)[C@H](CC(N)=O)NC(=O)[C@H](CCSC)NC2=O` [V6E] (H-GVIINEKCKISRQCLEPCKKAGMRFGKCMNGKCHCTPK-OH; disulfide 8-28, 14-33, 18-35), the results for the IC50 in assay [2] and in assay [3] were 0.0177 nM and 0.00243 nM, respectively.

As to “Fc-L10-OSK1[K7S]: OSK1-peptibody with lysine to serine substitution at position 7”, in assay [1], the “fold difference in Kv1.3 potency compared to Fc-L10-OSK1” value is reported as 2 fold.

Source of the values: patent publication US20090299044A1 (priority 2006, published 2009).
